Article PMC8699718, “A structurally conserved site in AUP1 binds the E2 enzyme UBE2G2 and is essential for ER-associated degradation” (PLoS Biology, 2021)
Ends that are not written are not given here.

Columns and labels:
[1] = test system: UBE2G2; assay: CHX chase: UBE2G2 turnover in HT1080 AUP1 KO cells; assay type: cell-based, human; conditions: GFP fusion transfected with MYC-UBE2G2, HT1080 AUP1 KO, compared with GFP-SCR
Protocol: Fig 7 G2BR^AUP1 protects UBE2G2 from degradation. (A) Indicated cells were assessed for steady state levels and turnover of endogenous UBE2G2 by CHX chase. (B) Transcript levels of endogenous UBE2G2 in AUP1 KO cells compared to HT1080 as determined by qPCR. Mean and standard deviation from three independent experiments is shown. […] (D) AUP1 KO cells were transfected with plasmids encoding MYC-UBE2G2 and GFP fusions of either a scrambled G2BR (SCR), G2BR^gp78, or G2BR^AUP1, and the turnover of UBE2G2 was assessed. (E) Relative abundance of gp78 (left panel) and AUP1 (right panel) in HT1080 cells was determined by resolving indicated amounts (in pmoles) of purified GST-gp78 (aa 429 to 611) or GST-AUP1 (aa 61 to 410) fusions alongside approximately 1 × 10^4 cellular equivalents of cell lysate and immunoblotting with gp78 or AUP1 antibodies. For each antibody, the amount of immunoreactivity in the lysate was compared to a defined quantity of a GST fusion protein of gp78 or AUP1 spanning the epitope recognized by the probing antibody. […] The data underlying this figure can be found in S1 and S8 Data. aa, amino acid; AUP1, ancient ubiquitous protein 1; CHX, cycloheximide; G2BR, UBE2G2 Binding Region; KO, knockout; qPCR, quantitative polymerase chain reaction; WT, wild type. […]

[2] = test system: NHK (Null Hong Kong variant of alpha1-antitrypsin); assay: CHX chase: NHK degradation in HT1080 UBE2G2 KO cells; assay type: cell-based, human; conditions: re-expression in HT1080 UBE2G2 KO
Protocol: Fig 3 The AUP1–UBE2G2 interaction is required for ERAD. (A) Equimolar amounts of GST-AUP1 (aa 292 to 410) or GST were immobilized on glutathione beads and binding to the indicated in vitro translated ^35S-labeled E2s was assessed. Left panel is 5% of input used for binding. E2s are referred to by their unique alpha-numeric designation (e.g., UBE2G1 and UBE2J1). (B) HT1080 or UBE2G2 KO cells were transfected with INSIG-1-MYC and degradation assessed by CHX chase. […] (D) Cells were transfected with NHK-MYC and HA-ubiquitin and ubiquitination of NHK assessed following proteasome inhibition and IP (right panel). Left panel is 10% of total cell lysate used for IP, indicating no discernable change in total ubiquitination. (E) Levels of endogenous HRD1 were monitored by CHX chase in the indicated cell types. (F) Ubiquitination of endogenous HRD1 was assessed following IP with HRD1 antiserum. Arrow in upper panel indicates migration of unmodified HRD1. […]
Plasmid transfections were carried out using PolyFect (Qiagen, Germantown, MD, USA) or JetPrime (Polyplus, New York, NY, USA) reagents. […] Clarified lysates or immunoprecipitates were denatured by heating in NuPAGE LDS Sample Buffer with β-mercaptoethanol at 70°C for 10 minutes, resolved on Bis-Tris polyacrylamide gels in NuPAGE MES or MOPS SDS running buffer and analyzed by western blotting. […]

Molecule | UBE2G2 degradation and steady state level [1] | NHK degradation in UBE2G2 KO cells [2]
GFP-G2BR^AUP1: GFP fusion of AUP1 aa 378 to 404 (SSWARQESLQERKQALYEYARRRFTER; also: GFP fusion; UniProt Q9Y679 378-404, looked up, fragment) | protected UBE2G2 from degradation and increased the steady state level of this E2 | –
UBE2G2: ERAD ubiquitin-conjugating enzyme (E2); purified in vitro, N-terminally MYC-tagged in cells (protein) MAGTALKRLMAEYKQLTLNPPEGIVAGPMNEENFFEWEALIMGPEDTCFEFGVFPAILSFPLDYPLSPPKMRFTCEMFHPNIYPDGRVCISILHAPGDDPMGYESSAERWSPVQSVEKILLSVVSMLAEPNDESGANVDASKMWRDDREQFYKIAKQIVQKSLGL | – | restored NHK degradation
